Measurements taken from PMC3433414, “Oral Administration of the Pimelic Diphenylamide HDAC Inhibitor HDACi 4b Is Unsuitable for Chronic Inhibition of HDAC Activity in the CNS In Vivo” (PLoS ONE, 2012).

Key:
HDAC5 = target: T1, HDAC5 (Homo sapiens, UniProt Q9UQL6); assay: Two-step fluorogenic deacetylase assay, recombinant HDAC5; type: biochemical; settings: up to 50 µM
T1 construct: HDAC5 (αα 657–1123; cat # 50005); purchased BPS Bioscience (San Diego, CA) 50005
Excerpt: To assess the biochemical and cellular potency of 4b and its conversion products/metabolites, we utilized the two-step fluorogenic assay which measures the HDAC-mediated catalytic conversion of synthetic acetylated lysine substrates. In brief, on deacetylation of the substrates by HDAC activity, a protease site is unmasked which allows subsequent trypsin-mediated cleavage and release of the highly flourescent AMC molecules in a subsequent step of the assay. The substrates used were Lys_Ac_AMC (Bachem I-1875) for HDAC3 and (Ac)Arg-Gly-Lys(Ac) (Bachem I-1925) for HDAC1 and HDAC2. […] However, the relatively labile and sterically more demanding trifluoracetyl group is readily hydrolyzed by the catalytically less avid Class IIa enzymes, allowing measurement of Class IIa activity using the 2-step fluorogenic assay. […]
For evaluation of the class selectivity of the compounds, we assessed inhibition against purified recombinant human full length HDAC1 (cat# 50051), HDAC2 (cat# 50052), HDAC3-NcoR2 (cat# 50003) and HDAC8 (cat# 50008): as representative of Class I activity; catalytic domain HDAC4(αα 648–1057), HDAC5 (αα 657–1123; cat # 50005), HDAC7 (αα 518-end; cat # 50007) and HDAC9 (αα 604–1066; cat # 50009) activity: representing all Class IIa activity; and full length HDAC6 (cat#50006): representing Class IIb activity. […]

[1] = Stability in serum albumin; type: in vitro ADME
Procedure: Incubations of test compound (5 µM initial concentration, n = 2) were carried out with pooled mouse plasma or BSA (45 mg/mL in 0.1 M phosphate buffered saline). The incubations were performed at 37°C. Samples (50 µL) were obtained from the incubation at 0, 10, 30, 120, 240, 360 and 1440 min, and added to 150 µL of acetonitrile containing carbamazepine as analytical internal standard to terminate the reaction. Samples were centrifuged and the supernatant fractions analysed by LC-MS/MS.

P2X = assay: Cerep binding, agonist radioligand; settings: 10 μM
Excerpt: (§1) In addition to the HDAC profiling performed, we also queried 4b for any apparent potential off-target effects, which could complicate any finding of efficacy or adverse events in vivo due to ‘polypharmacy’. This was accomplished by screening against a ‘diversity panel’ of 72 binding and 29 enzyme assays, comprised of roughly equal numbers of selective central and peripheral therapeutically relevant targets (Cerep Diversity Profile). This panel included representative targets from diverse enzyme families, G protein coupled receptors, steroid nuclear receptors, voltage- and ligand-gated ion channels. While not totally inclusive, it is a useful tool for discovery compounds to assess their viability as proof of concept molecules to specifically query a particular target. 4b was initially screened at 10 µM in duplicate. The full set of results is provided as Table S1. […] This clean in vitro profile was considered acceptable to proceed to ADME and pharmacokinetic studies.

ETA (h) = target: T2, ETA (h) (Homo sapiens, UniProt P25101); assay: Cerep binding, agonist radioligand; settings: read-out: % inhibition of control specific binding
T2 construct: purchased Cerep (Diversity Profile)
T2 sequence (P25101 21-427): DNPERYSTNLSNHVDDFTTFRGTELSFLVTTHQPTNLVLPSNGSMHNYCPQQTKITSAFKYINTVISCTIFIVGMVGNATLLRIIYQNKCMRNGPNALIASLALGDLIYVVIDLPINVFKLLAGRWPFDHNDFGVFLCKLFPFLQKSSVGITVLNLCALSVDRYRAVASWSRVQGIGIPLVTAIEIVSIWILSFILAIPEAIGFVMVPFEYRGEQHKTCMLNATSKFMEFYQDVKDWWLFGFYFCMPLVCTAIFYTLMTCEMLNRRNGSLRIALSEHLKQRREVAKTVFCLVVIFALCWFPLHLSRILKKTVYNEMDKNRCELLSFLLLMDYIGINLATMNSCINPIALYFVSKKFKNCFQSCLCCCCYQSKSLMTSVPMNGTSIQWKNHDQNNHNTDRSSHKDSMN
Excerpt: as §1

T1 sequence (Q9UQL6 656-1122): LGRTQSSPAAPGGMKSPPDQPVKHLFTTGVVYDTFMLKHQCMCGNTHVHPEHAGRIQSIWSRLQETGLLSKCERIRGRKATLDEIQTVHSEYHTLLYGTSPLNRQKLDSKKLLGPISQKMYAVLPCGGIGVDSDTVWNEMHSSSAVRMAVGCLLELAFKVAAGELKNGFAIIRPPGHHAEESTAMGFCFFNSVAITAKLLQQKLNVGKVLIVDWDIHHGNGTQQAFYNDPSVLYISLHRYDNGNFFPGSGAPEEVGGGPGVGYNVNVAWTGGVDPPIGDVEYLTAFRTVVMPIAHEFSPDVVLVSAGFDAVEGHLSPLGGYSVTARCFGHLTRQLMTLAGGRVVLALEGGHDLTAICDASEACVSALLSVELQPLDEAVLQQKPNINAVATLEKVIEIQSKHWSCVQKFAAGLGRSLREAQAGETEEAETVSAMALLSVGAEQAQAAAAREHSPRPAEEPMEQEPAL

Row | % inhibition of control specific binding (P2X) | inhibition at 10 µM (ETA (h)) | Compound | activity against HDAC5 (HDAC5) | stability in serum albumin incubations [1]
1 | – | – | Nc1ccccc1NC(=O)CCCCCC(=O)Nc1ccccc1 [Compound 4b] | No activity | stable
2 | 5% | 2% | O=C(CCCCCc1nc2ccccc2[nH]1)Nc1ccccc1 [Compound C1, 6-(1-H-benzo[d]imidazol-2-yl)-N-phenylhexanamide] | – | –
